# Data from ChEMBL document CHEMBL1201862, “PubChem BioAssay data set” (2004).
#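 Cultured in 96-well plates, cells were exposed to test compound for 48 hours across five concentrations. GI50 = concentration required for 50% inhibition of growth.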 Calls of active or inactive are those of the source. No stated cut-off is given here; in the data, active = GI50 up to about 1.1 µM and inactive = higher.
# Columns and labels:
# Experiment in all cases: NCI-60 cell line screen, 48 h
# LOX IMVI = test system: LOX IMVI
# COLO 205 = test system: COLO 205
# SK-MEL-5 = test system: SK-MEL-5
# IGROV-1 = test system: IGROV-1
# HL-60 = test system: HL-60
# MDA-MB-231 = test system: MDA-MB-231
# RPMI-8226 = test system: RPMI-8226
# T47D = test system: T47D
# SK-MEL-2 = test system: SK-MEL-2
# NCI-H460 = test system: NCI-H460
# SW-620 = test system: SW-620
# HCT-15 = test system: HCT-15
# HCC 2998 = test system: HCC 2998
# MCF7 = test system: MCF7
# TK-10 = test system: TK-10
# NCI-H226 = test system: NCI-H226
# CCRF-CEM = test system: CCRF-CEM
# HOP-62 = test system: HOP-62
# HT-29 = test system: HT-29
# KM12 = test system: KM12
# A498 = test system: A498
# ACHN = test system: ACHN
# PC-3 = test system: PC-3
# CAKI-1 = test system: CAKI-1
# SF-539 = test system: SF-539
# U-251 = test system: U-251
# SNB-75 = test system: SNB-75
# RXF 393 = test system: RXF 393
# SK-OV-3 = test system: SK-OV-3
# SN12C = test system: SN12C
# DU-145 = test system: DU-145
# MOLT-4 = test system: MOLT-4
# 786-0 = test system: 786-0
# BT-549 = test system: BT-549
# MDA-N = test system: MDA-N
# SK-MEL-28 = test system: SK-MEL-28
# OVCAR-5 = test system: OVCAR-5
# SF-268 = test system: SF-268
# SF-295 = test system: SF-295
# HOP-92 = test system: HOP-92
# Malme-3M = test system: Malme-3M
# NCI-H23 = test system: NCI-H23
# M14 = test system: M14
# NCI-H522 = test system: NCI-H522
# MDA-MB-435 = test system: MDA-MB-435
# SR = test system: SR
# UACC-257 = test system: UACC-257
# Hs-578T = test system: Hs-578T
# UACC-62 = test system: UACC-62
# OVCAR-3 = test system: OVCAR-3
# EKVX = test system: EKVX
# OVCAR-4 = test system: OVCAR-4
# SNB-19 = test system: SNB-19
# A549 = test system: A549
# NCI/ADR-RES = test system: NCI/ADR-RES
# HCT-116 = test system: HCT-116
# OVCAR-8 = test system: OVCAR-8
# UO-31 = test system: UO-31
# K562 = test system: K562
structure (smiles),measurement,setting,value
CCCCCC(/C=N/N)C(O)(C(F)(F)F)C(F)(F)F (centres undefined),GI50,LOX IMVI,3.32 µM (inactive)
same,GI50,COLO 205,1.86 µM (inactive)
same,GI50,SK-MEL-5,1.77 µM (inactive)
same,GI50,IGROV-1,7.18 µM (inactive)
same,GI50,HL-60,> 10 µM (inactive)
same,GI50,MDA-MB-231,4.07 µM (inactive)
same,GI50,RPMI-8226,> 10 µM (inactive)
same,GI50,T47D,7.08 µM (inactive)
same,GI50,SK-MEL-2,3.37 µM (inactive)
same,GI50,NCI-H460,3.34 µM (inactive)
same,GI50,SW-620,2.53 µM (inactive)
same,GI50,HCT-15,3.48 µM
same,GI50,HCC 2998,6.78 µM (inactive)
same,GI50,MCF7,3.22 µM (inactive)
same,GI50,TK-10,7.89 µM (inactive)
same,GI50,NCI-H226,2.54 µM (inactive)
same,GI50,CCRF-CEM,> 10 µM (inactive)
same,GI50,HOP-62,4.78 µM (inactive)
same,GI50,HT-29,3.59 µM (inactive)
same,GI50,KM12,4.44 µM (inactive)
same,GI50,A498,2.44 µM (inactive)
same,GI50,ACHN,4.15 µM (inactive)
same,GI50,PC-3,3.27 µM (inactive)
same,GI50,CAKI-1,2.47 µM (inactive)
same,GI50,SF-539,3.93 µM (inactive)
same,GI50,U-251,3.61 µM (inactive)
same,GI50,SNB-75,3.29 µM (inactive)
same,GI50,RXF 393,7.28 µM (inactive)
same,GI50,SK-OV-3,5.06 µM (inactive)
same,GI50,SN12C,3.23 µM (inactive)
same,GI50,DU-145,1.9 µM (inactive)
same,GI50,MOLT-4,> 10 µM (inactive)
same,GI50,786-0,2.97 µM (inactive)
same,GI50,BT-549,4.04 µM (inactive)
same,GI50,MDA-N,3.55 µM (inactive)
same,GI50,SK-MEL-28,2.64 µM (inactive)
same,GI50,OVCAR-5,4.19 µM (inactive)
same,GI50,SF-268,1.87 µM (inactive)
same,GI50,SF-295,3.13 µM (inactive)
same,GI50,HOP-92,2.79 µM (inactive)
same,GI50,Malme-3M,1.36 µM (inactive)
same,GI50,NCI-H23,3.58 µM (inactive)
same,GI50,M14,4.47 µM (inactive)
same,GI50,NCI-H522,5.51 µM (inactive)
same,GI50,MDA-MB-435,3.53 µM (inactive)
same,GI50,SR,> 10 µM (inactive)
same,GI50,UACC-257,5 µM (inactive)
same,GI50,Hs-578T,3.27 µM (inactive)
same,GI50,UACC-62,3.9 µM (inactive)
same,GI50,OVCAR-3,2.04 µM (inactive)
same,GI50,EKVX,2.58 µM (inactive)
same,GI50,OVCAR-4,5.35 µM (inactive)
same,GI50,SNB-19,4.08 µM (inactive)
same,GI50,A549,4.91 µM (inactive)
same,GI50,NCI/ADR-RES,> 10 µM (inactive)
same,GI50,HCT-116,3.99 µM (inactive)
same,GI50,OVCAR-8,3.48 µM (inactive)
COC(=O)C1=NN2c3ccccc3C(=O)OCCC2(C)C1 (centres undefined),GI50,LOX IMVI,> 100 µM (inactive)
same,GI50,COLO 205,> 100 µM (inactive)
same,GI50,SK-MEL-5,> 100 µM (inactive)
same,GI50,UO-31,> 100 µM (inactive)
same,GI50,IGROV-1,> 100 µM (inactive)
same,GI50,HL-60,> 100 µM (inactive)
same,GI50,MDA-MB-231,> 100 µM (inactive)
same,GI50,RPMI-8226,> 100 µM (inactive)
same,GI50,T47D,> 100 µM (inactive)
same,GI50,SK-MEL-2,> 100 µM (inactive)
same,GI50,NCI-H460,68.2 µM (inactive)
same,GI50,SW-620,> 100 µM (inactive)
same,GI50,HCT-15,> 100 µM
same,GI50,HCC 2998,> 100 µM (inactive)
same,GI50,MCF7,> 100 µM (inactive)
same,GI50,TK-10,> 100 µM (inactive)
same,GI50,NCI-H226,> 100 µM (inactive)
same,GI50,CCRF-CEM,> 100 µM (inactive)
same,GI50,HOP-62,> 100 µM (inactive)
same,GI50,HT-29,> 100 µM (inactive)
same,GI50,KM12,> 100 µM (inactive)
same,GI50,A498,> 100 µM (inactive)
same,GI50,ACHN,> 100 µM (inactive)
same,GI50,PC-3,> 100 µM (inactive)
same,GI50,CAKI-1,> 100 µM (inactive)
same,GI50,SF-539,> 100 µM (inactive)
same,GI50,U-251,> 100 µM (inactive)
same,GI50,SNB-75,> 100 µM (inactive)
same,GI50,RXF 393,> 100 µM (inactive)
same,GI50,SK-OV-3,> 100 µM (inactive)
same,GI50,SN12C,> 100 µM (inactive)
same,GI50,DU-145,> 100 µM (inactive)
same,GI50,MOLT-4,> 100 µM (inactive)
same,GI50,786-0,> 100 µM (inactive)
same,GI50,BT-549,> 100 µM (inactive)
same,GI50,MDA-N,> 100 µM (inactive)
same,GI50,SK-MEL-28,> 100 µM (inactive)
same,GI50,OVCAR-5,> 100 µM (inactive)
same,GI50,SF-268,> 100 µM (inactive)
same,GI50,K562,> 100 µM (inactive)
same,GI50,SF-295,> 100 µM (inactive)
same,GI50,HOP-92,> 100 µM (inactive)
same,GI50,Malme-3M,> 100 µM (inactive)
same,GI50,NCI-H23,> 100 µM (inactive)
same,GI50,NCI-H522,> 100 µM (inactive)
same,GI50,MDA-MB-435,> 100 µM (inactive)
same,GI50,SR,> 100 µM (inactive)
same,GI50,Hs-578T,> 100 µM (inactive)
same,GI50,UACC-62,> 100 µM (inactive)
same,GI50,OVCAR-3,> 100 µM (inactive)
same,GI50,EKVX,> 100 µM (inactive)
same,GI50,OVCAR-4,> 100 µM (inactive)
same,GI50,A549,> 100 µM (inactive)
same,GI50,NCI/ADR-RES,> 100 µM (inactive)
same,GI50,HCT-116,> 100 µM (inactive)
same,GI50,OVCAR-8,> 100 µM (inactive)
CCC1c2[nH]c3ccccc3c2C[C@H]2C(=O)NC(C)C(=O)N12 (some centres undefined),GI50,LOX IMVI,> 100 µM (inactive)
same,GI50,COLO 205,> 100 µM (inactive)
same,GI50,SK-MEL-5,> 100 µM (inactive)
same,GI50,UO-31,> 100 µM (inactive)
same,GI50,IGROV-1,> 100 µM (inactive)
same,GI50,HL-60,> 100 µM (inactive)
same,GI50,MDA-MB-231,> 100 µM (inactive)
same,GI50,RPMI-8226,> 100 µM (inactive)
same,GI50,T47D,> 100 µM (inactive)
same,GI50,SK-MEL-2,> 100 µM (inactive)
same,GI50,SW-620,> 100 µM (inactive)
same,GI50,HCT-15,> 100 µM
same,GI50,HCC 2998,> 100 µM (inactive)
same,GI50,MCF7,> 100 µM (inactive)
same,GI50,TK-10,> 100 µM (inactive)
same,GI50,NCI-H226,> 100 µM (inactive)
same,GI50,HOP-62,> 100 µM (inactive)
same,GI50,HT-29,> 100 µM (inactive)
same,GI50,KM12,> 100 µM (inactive)
same,GI50,A498,> 100 µM (inactive)
same,GI50,ACHN,> 100 µM (inactive)
same,GI50,PC-3,> 100 µM (inactive)
same,GI50,CAKI-1,> 100 µM (inactive)
same,GI50,U-251,> 100 µM (inactive)
same,GI50,SNB-75,23.7 µM (inactive)
same,GI50,RXF 393,> 100 µM (inactive)
same,GI50,SK-OV-3,> 100 µM (inactive)
same,GI50,SN12C,> 100 µM (inactive)
same,GI50,DU-145,> 100 µM (inactive)
same,GI50,MOLT-4,> 100 µM (inactive)
same,GI50,786-0,> 100 µM (inactive)
same,GI50,BT-549,> 100 µM (inactive)
same,GI50,MDA-N,> 100 µM (inactive)
same,GI50,SK-MEL-28,> 100 µM (inactive)
same,GI50,OVCAR-5,> 100 µM (inactive)
same,GI50,SF-268,> 100 µM (inactive)
same,GI50,K562,> 100 µM (inactive)
same,GI50,SF-295,> 100 µM (inactive)
same,GI50,HOP-92,> 100 µM (inactive)
same,GI50,Malme-3M,> 100 µM (inactive)
same,GI50,NCI-H23,> 100 µM (inactive)
same,GI50,M14,> 100 µM (inactive)
same,GI50,NCI-H522,> 100 µM (inactive)
same,GI50,MDA-MB-435,> 100 µM (inactive)
same,GI50,SR,> 100 µM (inactive)
same,GI50,UACC-257,> 100 µM (inactive)
same,GI50,Hs-578T,> 100 µM (inactive)
same,GI50,UACC-62,> 100 µM (inactive)
same,GI50,OVCAR-3,> 100 µM (inactive)
same,GI50,EKVX,> 100 µM (inactive)
same,GI50,OVCAR-4,> 100 µM (inactive)
same,GI50,SNB-19,> 100 µM (inactive)
same,GI50,A549,> 100 µM (inactive)
same,GI50,NCI/ADR-RES,> 100 µM (inactive)
same,GI50,HCT-116,> 100 µM (inactive)
same,GI50,OVCAR-8,> 100 µM (inactive)
